In paper PMC7375528, “Piperidine scaffold as the novel P2-ligands in cyclopropyl-containing HIV-1 protease inhibitors: Structure-based design, synthesis, biological evaluation and docking study” (PLoS ONE, 2020):

Experiments:
[1] = Cytotoxicity assay (cell counting kit-8); assay type: cell-based; settings: human; 293T cells, CCK-8, 24h exposure
Method: Selected inhibitors were further evaluated in cytotoxicity assay using a cell counting kit-8 assay. […] After 24h of culture, 1μL of drugs were added to each well. After another 24h of culture, 10 μL of CCK-8 was added to each well. Absorbance was quantified at wavelength 450 nm using an EnVision multilabel reader (PerkinElmer) after 2h at room temperature.

[2] = target: T1, wild-type HIV-1 PR (Human immunodeficiency virus type 1 group M subtype B, UniProt P04585); assay: In vitro HIV-1 PR activity assay (FRET); assay type: biochemical
T1 construct: HIV-1 protease was cloned and heterologously expressed in Escherichia coli and purified; made in house; host or cells: Escherichia coli
Method: (§1) The inhibitory effect of all new designed inhibitors were measured using fluorescence resonance energy transfer (FRET) method. […] The energy transfer donor (EDANS) and acceptor (DABCYL) dyes are labeled at two ends of the peptide to perform FRET. Excitation and emission wavelengths were set at 340 nm and 490 nm. Inhibitors were dissolved in dimethylsulfoxide (DMSO) and diluted to appropriate concentrations. HIV-1 protease was cloned and heterologously expressed in Escherichia coli and purified. The experiment was carried out in 96-well plates. The FRET assay reaction buffer contained 0.1 M sodium acetate, 1 M sodium chloride, 1 mM ethylenediaminetetraacetic acid (EDTA), 1 mM dithiothreitol (DTT), 2% DMSO and 1 mg/mL bovine serum albumin (BSA) with an adjusted pH 4.7. Protease and inhibitor were mixed and incubated for 20–30 mins at room temperature and then the substrate was added. Each reaction was recorded for about 10 mins. From plots of concentration versus the calculated percent inhibition, IC50 values were determined.
as §1, with “20-30” for “20–30”, “mins.” for “mins. From plots of concentration versus the calculated percent inhibition, IC50 values were determined.”

SMILES | CC50 at 24 h [1] | melting point | IC50 [2]
O=C(N[C@@H](Cc1ccccc1)[C@H](O)CN(C1CC1)S(=O)(=O)c1ccc(C(F)(F)F)cc1)[C@@H]1CCCNC1 [22b, (R)-N-((2S,3R)-4-((N-cyclopropyl-4-(trifluoromethyl)phenyl)sulfonamido)-3-hydroxy-1-phenylbutan-2-yl)piperidine-3-carboxamide] | > 100 µM | 204.8 to 206.3 °C | 8.35 ± 5.58 nM
O=C(N[C@@H](Cc1ccccc1)[C@H](O)CN(C1CC1)S(=O)(=O)c1ccc([N+](=O)[O-])cc1)[C@@H]1CCCNC1 [22c, (R)-N-((2S,3R)-4-((N-cyclopropyl-4-nitrophenyl)sulfonamido)-3-hydroxy-1-phenylbutan-2-yl)piperidine-3-carboxamide] | > 100 µM | 196.8 to 198.4 °C | 17 ± 8.12 nM
Nc1ccc(S(=O)(=O)N(C[C@@H](O)[C@H](Cc2ccccc2)NC(=O)[C@@H]2CCCNC2)C2CC2)cc1 [22d, (R)-N-((2S,3R)-4-((4-amino-N-cyclopropylphenyl)sulfonamido)-3-hydroxy-1-phenylbutan-2-yl)piperidine-3-carboxamide] | > 100 µM | 216.5 to 218.3 °C | 10.1 ± 6.71 nM
COc1ccc(S(=O)(=O)N(C[C@@H](O)[C@H](Cc2ccccc2)NC(=O)[C@H]2CCCNC2)C2CC2)cc1 [23a, (S)-N-((2S,3R)-4-((N-cyclopropyl-4-methoxyphenyl)sulfonamido)-3-hydroxy-1-phenylbutan-2-yl)piperidine-3-carboxamide] | – | 92.9 to 94.7 °C | 433 ± 97.5 nM
O=C(N[C@@H](Cc1ccccc1)[C@H](O)CN(C1CC1)S(=O)(=O)c1ccc(C(F)(F)F)cc1)[C@H]1CCCNC1 [23b, (S)-N-((2S,3R)-4-((N-cyclopropyl-4-(trifluoromethyl)phenyl)sulfonamido)-3-hydroxy-1-phenylbutan-2-yl)piperidine-3-carboxamide] | – | 236.5 to 238.4 °C | 264 ± 69.1 nM
O=C(N[C@@H](Cc1ccccc1)[C@H](O)CN(C1CC1)S(=O)(=O)c1ccc([N+](=O)[O-])cc1)[C@H]1CCCNC1 [23c, (S)-N-((2S,3R)-4-((N-cyclopropyl-4-nitrophenyl)sulfonamido)-3-hydroxy-1-phenylbutan-2-yl)piperidine-3-carboxamide] | – | 155.9 to 157.2 °C | 483 ± 103 nM
Nc1ccc(S(=O)(=O)N(C[C@@H](O)[C@H](Cc2ccccc2)NC(=O)[C@H]2CCCNC2)C2CC2)cc1 [23d, (S)-N-((2S,3R)-4-((4-amino-N-cyclopropylphenyl)sulfonamido)-3-hydroxy-1-phenylbutan-2-yl)piperidine-3-carboxamide] | – | 77.8 to 79.4 °C | 313 ± 58.1 nM
CN1CCC[C@@H](C(=O)N[C@@H](Cc2ccccc2)[C@H](O)CN(C2CC2)S(=O)(=O)c2ccc([N+](=O)[O-])cc2)C1 [24c, (R)-N-((2S,3R)-4-((N-cyclopropyl-4-nitrophenyl)sulfonamido)-3-hydroxy-1-phenylbutan-2-yl)-1-methylpiperidine-3-carboxamide] | – | 159.9 to 161.2 °C | 39.5 ± 11.9 nM
CN1CCC[C@@H](C(=O)N[C@@H](Cc2ccccc2)[C@H](O)CN(C2CC2)S(=O)(=O)c2ccc(N)cc2)C1 [24d, (R)-N-((2S,3R)-4-((4-amino-N-cyclopropylphenyl)sulfonamido)-3-hydroxy-1-phenylbutan-2-yl)-1-methylpiperidine-3-carboxamide] | > 100 µM | 75.8 to 77.3 °C | 16.3 ± 9.54 nM
COc1ccc(S(=O)(=O)N(C[C@@H](O)[C@H](Cc2ccccc2)NC(=O)[C@H]2CCCN(C)C2)C2CC2)cc1 [25a, (S)-N-((2S,3R)-4-((N-cyclopropyl-4-methoxyphenyl)sulfonamido)-3-hydroxy-1-phenylbutan-2-yl)-1-methylpiperidine-3-carboxamide] | – | 88.9 to 91.2 °C | 283 ± 36.4 nM
CN1CCC[C@H](C(=O)N[C@@H](Cc2ccccc2)[C@H](O)CN(C2CC2)S(=O)(=O)c2ccc(C(F)(F)F)cc2)C1 [25b, (S)-N-((2S,3R)-4-((N-cyclopropyl-4-(trifluoromethyl)phenyl)sulfonamido)-3-hydroxy-1-phenylbutan-2-yl)-1-methylpiperidine-3-carboxamide] | – | 102.7 to 104.6 °C | 110 ± 27.2 nM
CN1CCC[C@H](C(=O)N[C@@H](Cc2ccccc2)[C@H](O)CN(C2CC2)S(=O)(=O)c2ccc([N+](=O)[O-])cc2)C1 [25c, (S)-N-((2S,3R)-4-((N-cyclopropyl-4-nitrophenyl)sulfonamido)-3-hydroxy-1-phenylbutan-2-yl)-1-methylpiperidine-3-carboxamide] | – | 133.2 to 134.8 °C | 523 ± 104 nM
CN1CCC[C@H](C(=O)N[C@@H](Cc2ccccc2)[C@H](O)CN(C2CC2)S(=O)(=O)c2ccc(N)cc2)C1 [25d, (S)-N-((2S,3R)-4-((4-amino-N-cyclopropylphenyl)sulfonamido)-3-hydroxy-1-phenylbutan-2-yl)-1-methylpiperidine-3-carboxamide] | – | 76.8 to 78.5 °C | 236 ± 36.5 nM
COc1ccc(S(=O)(=O)N(C[C@@H](O)[C@H](Cc2ccccc2)NC(=O)C2CCNCC2)C2CC2)cc1 [26a, N-((2S,3R)-4-((N-cyclopropyl-4-methoxyphenyl)sulfonamido)-3-hydroxy-1-phenylbutan-2-yl)piperidine-4-carboxamide] | – | 219.9 to 221.3 °C | 155 ± 15.1 nM
O=C(N[C@@H](Cc1ccccc1)[C@H](O)CN(C1CC1)S(=O)(=O)c1ccc(C(F)(F)F)cc1)C1CCNCC1 [26b, N-((2S,3R)-4-((N-cyclopropyl-4-(trifluoromethyl)phenyl)sulfonamido)-3-hydroxy-1-phenylbutan-2-yl)piperidine-4-carboxamide] | – | 243.3 to 245.1 °C | 124 ± 27.6 nM
O=C(N[C@@H](Cc1ccccc1)[C@H](O)CN(C1CC1)S(=O)(=O)c1ccc([N+](=O)[O-])cc1)C1CCNCC1 [26c, N-((2S,3R)-4-((N-cyclopropyl-4-nitrophenyl)sulfonamido)-3-hydroxy-1-phenylbutan-2-yl)piperidine-4-carboxamide] | – | 186.2 to 187.7 °C | 268 ± 37.8 nM
Nc1ccc(S(=O)(=O)N(C[C@@H](O)[C@H](Cc2ccccc2)NC(=O)C2CCNCC2)C2CC2)cc1 [26d, N-((2S,3R)-4-((4-amino-N-cyclopropylphenyl)sulfonamido)-3-hydroxy-1-phenylbutan-2-yl)piperidine-4-carboxamide] | – | 204.7 to 206.5 °C | 245 ± 39.8 nM
COc1ccc(S(=O)(=O)N(C[C@@H](O)[C@H](Cc2ccccc2)NC(=O)CN2CCCCC2)C2CC2)cc1 [27a, N-((2S,3R)-4-((N-cyclopropyl-4-methoxyphenyl)sulfonamido)-3-hydroxy-1-phenylbutan-2-yl)-2-(piperidin-1-yl)acetamide] | – | 63.6 to 65.8 °C | 228 ± 45 nM
O=C(CN1CCCCC1)N[C@@H](Cc1ccccc1)[C@H](O)CN(C1CC1)S(=O)(=O)c1ccc(C(F)(F)F)cc1 [27b, N-((2S,3R)-4-((N-cyclopropyl-4-(trifluoromethyl)phenyl)sulfonamido)-3-hydroxy-1-phenylbutan-2-yl)-2-(piperidin-1-yl)acetamide] | – | 72.3 to 75.2 °C | 52.7 ± 14.7 nM
O=C(CN1CCCCC1)N[C@@H](Cc1ccccc1)[C@H](O)CN(C1CC1)S(=O)(=O)c1ccc([N+](=O)[O-])cc1 [27c, N-((2S,3R)-4-((N-cyclopropyl-4-nitrophenyl)sulfonamido)-3-hydroxy-1-phenylbutan-2-yl)-2-(piperidin-1-yl)acetamide] | – | 82.9 to 84.1 °C | 288 ± 62 nM
Nc1ccc(S(=O)(=O)N(C[C@@H](O)[C@H](Cc2ccccc2)NC(=O)CN2CCCCC2)C2CC2)cc1 [27d, N-((2S,3R)-4-((4-amino-N-cyclopropylphenyl)sulfonamido)-3-hydroxy-1-phenylbutan-2-yl)-2-(piperidin-1-yl)acetamide] | – | 144.4 to 146.2 °C | 34.7 ± 12.5 nM
